Experimental data: PMC8579695, “The Stringent Response Inhibits 70S Ribosome Formation in Staphylococcus aureus by Impeding GTPase-Ribosome Interactions” (mBio, 2021)

System: RA-GTPases RsgA, RbgA, Era, and HflX
Assay: DRaCALA binding and competition assays across the four RA-GTPases
Design: species or system Staphylococcus aureus
Settings: 100 μM cold competitor
Description: FIG 1 Nucleotide binding characteristics of RA-GTPases. (A) Schematic representation of the domain structure of Era, RsgA, RbgA, and HflX from S. aureus. The conserved GTPase domain (G domain) is colored in green, and accessory domains are shown. (B) Determination of binding affinities and Kd values for ^32P-labeled GTP, GDP, ppGpp, and pppGpp with purified recombinant 6×His-tagged RbgA using DRaCALA, as previously described ([36]). Each point is the mean average of at least three technical replicates, and error bars indicate standard deviations. (C) Binding assay (DRaCALA) of recombinant RbgA binding to ^32P-labeled GTP, ppGpp, and pppGpp in the presence of an excess of cold competitor (GTP, GDP, ppGpp, pppGpp, or ATP). All experiments were carried out in triplicate, with error bars representing standard deviations. […]
Supplementary file : FIG S2 Examination of the binding of GDP, ppGpp, GTP, and pppGpp to RA-GTPases by DRaCALA. […] Kd values were determined from the binding curves as previously described ([36]). […]
Structural data places (p)ppGpp within the GTP-binding site of the RA-GTPase RbgA ([6]), indicating a competitive mode of inhibition. […] Based on our measured affinities (Table 1), we speculate that both GDP and ppGpp will outcompete other nucleotides for occupancy of the binding site. […]

Nc1nc2c(ncn2[C@@H]2O[C@H](COP(=O)(O)OP(=O)(O)O)[C@@H](OP(=O)(O)OP(=O)(O)O)[C@H]2O)c(=O)[nH]1 [ppGpp]
competition of cold unlabeled nucleotide with 32P-labeled GTP, ppGpp, pppGpp: competing more effectively
